Measured values as given in ChEMBL document CHEMBL1154221, “Farinomalein, a maleimide-bearing compound from the entomopathogenic fungus Paecilomyces farinosus” (2009).

Tested on: Phytophthora sojae
Experiment: Antioomycete activity against Phytophthora sojae P6497 after 48 to 96 hrs by disc diffusion method
Type: functional

MIC [µg]	SMILES
10	C[C@@H]1[C@H](O)[C@@H](C)/C=C/C=C/C=C/C=C/C=C/C=C/C=C/[C@H](O[C@@H]2O[C@H](C)[C@@H](O)[C@H](N)[C@@H]2O)C[C@@H]2O[C@](O)(C[C@@H](O)C[C@@H](O)[C@H](O)CC[C@@H](O)C[C@@H](O)CC(=O)O[C@H]1C)C[C@H](O)[C@H]2C(=O)O [AMPHOTERICIN B]
5	CC(C)C1=CC(=O)N(CCC(=O)O)C1=O [FARINOMALEIN]
